“And” between values parts separate entries of the source, which are not always exact repeats. Identical values can stand only once. Toxic doses and inconclusive results are not listed.
Test system: BDF1 mice, B16 melanoma ip, median survival T/C
Assay: NCI In Vivo Anticancer Drug Screen. Data for tumor model B16 Melanoma (intraperitoneal) in B6D2F1 (BDF1) mice
Details: endpoint: median survival time, higher = longer survival
Summary of the method: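 In this screen, activity was judged from survival or tumor size in treated versus vehicle-treated tumor-bearing mice, reported as T/C.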

[1] = dose: 100.0 mg/kg/injection, schedule: Q01DX009 (ip), vehicle: Klucel (hydroxypropylcellulose) (HPC)
[2] = dose: 200.0 mg/kg/injection, schedule: Q01DX009 (ip), vehicle: Klucel (hydroxypropylcellulose) (HPC)
[3] = dose: 400.0 mg/kg/injection, schedule: Q01DX009 (ip), vehicle: Klucel (hydroxypropylcellulose) (HPC)
[4] = dose: 6.25 mg/kg/injection, schedule: Q01DX009 (ip), vehicle: Klucel (hydroxypropylcellulose) (HPC)
[5] = dose: 6.25 mg/kg/injection, schedule: Q01DX009 (ip), vehicle: saline with Tween-80
[6] = dose: 25.0 mg/kg/injection, schedule: Q01DX009 (ip), vehicle: saline with Tween-80
[7] = dose: 50.0 mg/kg/injection, schedule: Q01DX009 (ip), vehicle: Klucel (hydroxypropylcellulose) (HPC)
[8] = dose: 3.12 mg/kg/injection, schedule: Q01DX009 (ip), vehicle: saline
[9] = dose: 6.25 mg/kg/injection, schedule: Q01DX009 (ip), vehicle: saline
[10] = dose: 12.5 mg/kg/injection, schedule: Q01DX009 (ip), vehicle: saline
[11] = dose: 25.0 mg/kg/injection, schedule: Q01DX009 (ip), vehicle: saline
[12] = dose: 50.0 mg/kg/injection, schedule: Q01DX009 (ip), vehicle: saline
[13] = dose: 12.5 mg/kg/injection, schedule: Q01DX009 (ip), vehicle: saline with Tween-80
[14] = dose: 50.0 mg/kg/injection, schedule: Q01DX009 (ip), vehicle: saline with Tween-80
[15] = dose: 100.0 mg/kg/injection, schedule: Q01DX009 (ip), vehicle: saline
[16] = dose: 100.0 mg/kg/injection, schedule: Q01DX009 (ip), vehicle: saline with Tween-80
[17] = dose: 100.0 mg/kg/injection, schedule: Q04DX003 (ip), vehicle: saline with Tween-80
[18] = dose: 200.0 mg/kg/injection, schedule: Q04DX003 (ip), vehicle: saline with Tween-80
[19] = dose: 400.0 mg/kg/injection, schedule: Q04DX003 (ip), vehicle: saline with Tween-80

Brc1ccc2c(c1)-c1ccccc1C1=NCCN12
T/C (dose: 2.5 mg/kg/injection, schedule: Q01DX009 (ip), vehicle: Klucel (hydroxypropylcellulose) (HPC)): 118 % of control | T/C (dose: 5.0 mg/kg/injection, schedule: Q01DX009 (ip), vehicle: Klucel (hydroxypropylcellulose) (HPC)): 103 % of control | T/C (dose: 5.0 mg/kg/injection, schedule: Q04DX003 (ip), vehicle: saline with Tween-80): 100 % of control | T/C (dose: 10.0 mg/kg/injection, schedule: Q01DX009 (ip), vehicle: Klucel (hydroxypropylcellulose) (HPC)): 93 % of control | T/C (dose: 10.0 mg/kg/injection, schedule: Q04DX003 (ip), vehicle: saline with Tween-80): 102 % of control | T/C (dose: 10.0 mg/kg/injection, schedule: Q04DX003 (ip), vehicle: saline): 105 % of control | T/C (dose: 20.0 mg/kg/injection, schedule: Q04DX003 (ip), vehicle: saline with Tween-80): 100 % of control

CCOC(=O)C(=CNc1cccc(N)n1)C(=O)OCC
T/C [1]: 107 % of control | T/C [2]: 111 % of control | T/C [3]: 94 % of control

O=C(Nc1ccc(Cl)c(Cl)c1)Nc1c(Oc2ccc(Cl)c(Cl)c2)ccc(Cl)c1S(=O)(=O)O
T/C (dose: 3.12 mg/kg/injection, schedule: Q01DX009 (ip), vehicle: Klucel (hydroxypropylcellulose) (HPC)): 119 % of control | T/C [4]: 105 % of control | T/C [5]: 122 % of control | T/C (dose: 12.5 mg/kg/injection, schedule: Q01DX009 (ip), vehicle: Klucel (hydroxypropylcellulose) (HPC)): 105 % of control | T/C (dose: 25.0 mg/kg/injection, schedule: Q01DX009 (ip), vehicle: Klucel (hydroxypropylcellulose) (HPC)): 116 % of control | T/C [6]: 122 % of control | T/C [7]: 112 % of control | T/C [1]: 123 % of control

C[C@@H]1CCC[C@@H](NC(=O)N(CCCl)N=O)C1
T/C (dose: 4.7 mg/kg/injection, schedule: Q01DX009 (ip), vehicle: Klucel (hydroxypropylcellulose) (HPC)): 103 % of control | T/C (dose: 18.7 mg/kg/injection, schedule: Q01DX009 (ip), vehicle: Klucel (hydroxypropylcellulose) (HPC)): 210 % of control | T/C (dose: 18.75 mg/kg/injection, schedule: Q01DX009 (ip), vehicle: Klucel (hydroxypropylcellulose) (HPC)): 192 % of control | T/C (dose: 37.5 mg/kg/injection, schedule: Q01DX009 (ip), vehicle: Klucel (hydroxypropylcellulose) (HPC)): 103 % of control and 229 % of control

CCOC(=O)N1Cc2cc3cc(Cl)ccc3nc2C1
T/C (dose: 8.0 mg/kg/injection, schedule: Q01DX009 (ip), vehicle: saline with Tween-80): 103 % of control | T/C (dose: 16.0 mg/kg/injection, schedule: Q01DX009 (ip), vehicle: saline with Tween-80): 95 % of control | T/C (dose: 32.0 mg/kg/injection, schedule: Q01DX009 (ip), vehicle: saline with Tween-80): 93 % of control | T/C (dose: 64.0 mg/kg/injection, schedule: Q01DX009 (ip), vehicle: saline with Tween-80): 112 % of control

CC(N)Cc1ccc2c(c1)OCO2 (stereo not drawn)
T/C [8]: 119 % of control | T/C [9]: 116 % of control | T/C [10]: 102 % of control | T/C [11]: 108 % of control | T/C [12]: 116 % of control

CC[CH2][Pb]([CH2]CC)([CH2]CC)[O]C(=O)C(F)(F)F
T/C (dose: 0.39 mg/kg/injection, schedule: Q01DX009 (ip), vehicle: saline with Tween-80): 93 % of control | T/C (dose: 0.78 mg/kg/injection, schedule: Q01DX009 (ip), vehicle: saline with Tween-80): 111 % of control | T/C (dose: 1.5 mg/kg/injection, schedule: Q01DX009 (ip), vehicle: saline with Tween-80): 104 % of control | T/C (dose: 3.0 mg/kg/injection, schedule: Q01DX009 (ip), vehicle: saline with Tween-80): 98 % of control | T/C (dose: 3.12 mg/kg/injection, schedule: Q01DX009 (ip), vehicle: saline with Tween-80): 86 % of control

CC(C)(SCCc1ccc([N+](=O)[O-])cc1)C(N)C(=O)O (stereo not drawn)
T/C [4]: 88 % of control

CN1N=C(N)c2cn(C3OC(COP(=O)(O)O)C(O)C3O)c3ncnc1c23 (stereo not drawn)
T/C (dose: 6.25 mg/kg/injection, schedule: Q01DX009 (ip), vehicle: water): 89 % of control and 92 % of control | T/C (dose: 12.5 mg/kg/injection, schedule: Q01DX009 (ip), vehicle: water): 90 % of control | T/C (dose: 25.0 mg/kg/injection, schedule: Q01DX009 (ip), vehicle: water): 93 % of control | T/C (dose: 50.0 mg/kg/injection, schedule: Q01DX009 (ip), vehicle: water): 96 % of control | T/C (dose: 100.0 mg/kg/injection, schedule: Q01DX009 (ip), vehicle: water): 88 % of control

BrC1c2cccc3cccc(c23)C1Br (stereo not drawn)
T/C [5]: 116 % of control | T/C [13]: 113 % of control | T/C [6]: 124 % of control | T/C [14]: 121 % of control

CNc1ccc(C(=O)O)cc1I
T/C [1]: 105 % of control | T/C (dose: 100.0 mg/kg/injection, schedule: Q04DX003 (ip), vehicle: Klucel (hydroxypropylcellulose) (HPC)): 100 % of control | T/C [2]: 120 % of control | T/C (dose: 200.0 mg/kg/injection, schedule: Q04DX003 (ip), vehicle: Klucel (hydroxypropylcellulose) (HPC)): 104 % of control | T/C [3]: 91 % of control | T/C (dose: 400.0 mg/kg/injection, schedule: Q04DX003 (ip), vehicle: Klucel (hydroxypropylcellulose) (HPC)): 100 % of control

CNCCN(C)Cc1ccccc1
T/C [11]: 97 % of control | T/C [12]: 94 % of control | T/C [15]: 89 % of control

O=C(O)c1cc(S(=O)O)ccc1O
T/C (dose: 10.0 mg/kg/injection, schedule: Q01DX009 (ip), vehicle: saline): 103 % of control | T/C (dose: 20.0 mg/kg/injection, schedule: Q01DX009 (ip), vehicle: saline): 106 % of control | T/C (dose: 40.0 mg/kg/injection, schedule: Q01DX009 (ip), vehicle: saline): 98 % of control

O=NN(CCF)C(=O)NC1CCCCC1
T/C (dose: 7.5 mg/kg/injection, schedule: Q01DX001 (ip), vehicle: saline + alcohol): 115 % of control | T/C (dose: 15.0 mg/kg/injection, schedule: Q01DX001 (ip), vehicle: saline + alcohol): 106 % of control | T/C (dose: 30.0 mg/kg/injection, schedule: Q01DX001 (ip), vehicle: saline + alcohol): 119 % of control | T/C (dose: 60.0 mg/kg/injection, schedule: Q01DX001 (ip), vehicle: saline + alcohol): 171 % of control | T/C (dose: 120.0 mg/kg/injection, schedule: Q01DX001 (ip), vehicle: saline + alcohol): 166 % of control

CCCCCCCCCC(O)CCCCC (stereo not drawn)
T/C (dose: 75.0 mg/kg/injection, schedule: Q04DX003 (ip), vehicle: saline with Tween-80): 102 % of control | T/C (dose: 150.0 mg/kg/injection, schedule: Q04DX003 (ip), vehicle: saline with Tween-80): 94 % of control | T/C (dose: 300.0 mg/kg/injection, schedule: Q04DX003 (ip), vehicle: saline with Tween-80): 100 % of control

C=CC(=O)NCNC(=O)C=C
T/C [13]: 104 % of control | T/C [10]: 110 % of control | T/C [6]: 99 % of control | T/C [11]: 102 % of control | T/C [14]: 103 % of control | T/C [12]: 109 % of control | T/C [16]: 107 % of control | T/C [15]: 102 % of control

CCOC(=O)C(Cl)CCl (stereo not drawn)
T/C [7]: 100 % of control | T/C [1]: 100 % of control

Cc1cc2ccc(OC(=O)c3ccc(N=C(N)N)cc3)cc2oc1=O
T/C [13]: 91 % of control | T/C [6]: 100 % of control | T/C [16]: 86 % of control | T/C [17]: 92 % of control | T/C [18]: 95 % of control | T/C [19]: 95 % of control

COC(=O)/C=C/c1ccc([N+](=O)[O-])cc1
T/C [17]: 90 % of control | T/C [18]: 93 % of control | T/C [19]: 86 % of control

N=C(N)CCNC(=O)C1CCC(N)=N1 (stereo not drawn)
T/C (dose: 0.75 mg/kg/injection, schedule: Q01DX009 (ip), vehicle: saline): 96 % of control | T/C (dose: 1.5 mg/kg/injection, schedule: Q01DX009 (ip), vehicle: saline): 88 % of control | T/C (dose: 3.0 mg/kg/injection, schedule: Q01DX009 (ip), vehicle: saline): 93 % of control | T/C (dose: 6.0 mg/kg/injection, schedule: Q01DX009 (ip), vehicle: saline): 99 % of control

CC1=[N+](C)C(C)(C)CC(C)O1 (stereo not drawn)
T/C [8]: 91 % of control | T/C [9]: 104 % of control | T/C [10]: 104 % of control | T/C [11]: 91 % of control
